Laboratory results as given in patent publication US10183946B2, “Triazolo[4,5-D]pyrimidines” (Hoffmann—La Roche Inc., priority 2014, dated 2019).
Like-named read-outs stand apart in the source and are kept apart here.

Assays:
human CB1 receptors = human CB1 receptors (Homo sapiens (Human), UniProt P21554); assay: cAMP assay, CHO cells expressing human CB1 receptors; format: cell-based
Protocol: (§1) CHO cells expressing human CB1 or CB2 receptors are seeded 17-24 hours prior to the experiment 50.000 cells per well in a black 96 well plate with flat clear bottom (Corning Costar #3904) in DMEM (Invitrogen No. 31331), 1×HT supplement, with 10% fetal calf serum and incubated at 5% CO2 and 37° C. in a humidified incubator. The growth medium was exchanged with Krebs Ringer Bicarbonate buffer with 1 mM IBMX and incubated at 30° C. for 30 min. Compounds were added to a final assay volume of 100 μl and incubated for 30 min at 30° C. Using the cAMP-Nano-TRF detection kit the assay (Roche Diagnostics) was stopped by the addition of 50 μl lysis reagent (Tris, NaCl, 1.5% Triton X100, 2.5% NP40, 10% NaN3) and 50 μl detection solutions (20 μM mAb Alexa700-cAMP 1:1, and 48 μM Ruthenium-2-AHA-cAMP) and shaken for 2 h at room temperature. The time-resolved energy transfer is measured by a TRF reader (Evotec Technologies GmbH), equipped with a ND:YAG laser as excitation source. The plate is measured twice with the excitation at 355 nm and at the emission with a delay of 100 ns and a gate of 100 ns, total exposure time 10 s at 730 (bandwidth 30 nm) or 645 nm (bandwidth 75 nm), respectively. The FRET signal is calculated as follows: FRET=T730-Alexa730-P(T645-B645) with P=Ru730-B730/Ru645-B645, where T730 is the test well measured at 730 nM, T645 is the test well measured at 645 nm, B730 and B645 are the buffer controls at 730 nm and 645 nm, respectively. cAMP content is determined from the function of a standard curve spanning from 10 μM to 0.13 nM cAMP.
(§2) EC50 values were determined using Activity Base analysis (ID Business Solution, Limited). The EC50 values for a wide range of cannabinoid agonists generated from this assay were in agreement with the values published in the scientific literature.

human CB2 receptors = human CB2 receptors (Homo sapiens (Human), UniProt P34972); assay: cAMP assay, CHO cells expressing human CB2 receptors; format: cell-based; details: functional cAMP assay, read-out: CB2 hcAMP EC50
Protocol: as §1, §2

[1] = functional cAMP assay, CHO cells expressing human CB1, read-out: CB1 hcAMP EC50

Sequence of human CB1 receptors (P21554 whole entry): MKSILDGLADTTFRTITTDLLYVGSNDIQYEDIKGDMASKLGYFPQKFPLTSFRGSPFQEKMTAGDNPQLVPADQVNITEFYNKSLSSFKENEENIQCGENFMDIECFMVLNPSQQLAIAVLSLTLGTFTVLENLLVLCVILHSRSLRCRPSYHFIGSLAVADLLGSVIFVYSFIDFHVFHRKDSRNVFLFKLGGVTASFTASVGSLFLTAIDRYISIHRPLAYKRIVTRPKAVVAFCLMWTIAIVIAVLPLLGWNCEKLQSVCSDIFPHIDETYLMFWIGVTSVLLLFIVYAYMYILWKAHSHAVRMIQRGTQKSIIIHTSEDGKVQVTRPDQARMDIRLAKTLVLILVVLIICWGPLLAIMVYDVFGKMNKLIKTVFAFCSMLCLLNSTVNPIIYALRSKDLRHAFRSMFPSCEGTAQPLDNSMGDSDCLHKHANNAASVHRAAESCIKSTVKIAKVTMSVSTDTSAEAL
Sequence of human CB2 receptors (P34972 whole entry): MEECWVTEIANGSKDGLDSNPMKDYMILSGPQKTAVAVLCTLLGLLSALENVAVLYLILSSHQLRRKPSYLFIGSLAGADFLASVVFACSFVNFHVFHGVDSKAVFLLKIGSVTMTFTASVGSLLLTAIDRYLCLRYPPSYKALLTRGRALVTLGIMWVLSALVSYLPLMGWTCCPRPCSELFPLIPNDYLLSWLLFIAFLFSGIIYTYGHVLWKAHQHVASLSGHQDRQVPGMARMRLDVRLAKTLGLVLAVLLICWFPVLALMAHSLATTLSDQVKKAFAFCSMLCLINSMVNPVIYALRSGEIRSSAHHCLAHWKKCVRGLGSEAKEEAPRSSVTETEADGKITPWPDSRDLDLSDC

SMILES	EC50 (human CB1 receptors; [1]) [µM]	EC50 (human CB2 receptors) [µM]	EC50 (human CB1 receptors) [µM]
Cn1nccc1-c1nc(C(C)(C)C)nc2c1nnn2CC(C)(C)O [Example 22, 1-[5-tert-butyl-7-(2-methylpyrazol-3-yl)triazolo[4,5-d]pyrimidin-3-yl]-2-methylpropan-2-ol]	> 10	0.206	
Cn1nccc1-c1nc(C(C)(C)C)nc2c1nnn2C1COC1 [Example 19, 5-tert-butyl-7-(2-methylpyrazol-3-yl)-3-(oxetan-3-yl)triazolo[4,5-d]pyrimidine]	> 10	0.19	
CC(C)(C)c1nc(-c2ccccc2F)c2nnn(Cc3ccccc3Cl)c2n1 [Example 4, 5-tert-butyl-3-[(2-chlorophenyl)methyl]-7-(2-fluorophenyl)triazolo[4,5-d]pyrimidine]	> 10	0.0652	
Cn1nccc1-c1nc(C(C)(C)C)nc2c1nnn2Cc1ncccc1Cl [Example 21, 5-tert-butyl-3-[(3-chloropyridin-2-yl)methyl]-7-(2-methylpyrazol-3-yl)triazolo[4,5-d]pyrimidine]	> 10	0.0395	
Cn1cc(-c2nc(C(C)(C)C)nc3c2nnn3Cc2nnnn2C)cn1 [Example 24, 5-tert-butyl-7-(1-methylpyrazol-4-yl)-3-[(1-methyltetrazol-5-yl)methyl]triazolo[4,5-d]pyrimidine]	> 10	0.156	
CC(C)(C)c1nc(C2CCCC2)c2nnn(Cc3ccccc3Cl)c2n1 [Example 45a, 5-tert-Butyl-3-[(2-chlorophenyl)methyl]-7-cyclopentyl-triazolo[4,5-d]pyrimidine]	> 10	0.0944	
Cn1nccc1-c1nc(C(C)(C)C)nc2c1nnn2C1CCOC1 (stereo not drawn) [Example 18, 5-tert-butyl-7-(2-methylpyrazol-3-yl)-3-(oxolan-3-yl)triazolo[4,5-d]pyrimidine]	> 10	0.086	
CC(C)(C)c1nc(C2(O)CCCCCCC2)c2nnn(Cc3ccccc3Cl)c2n1 [Example 37, 1-[5-tert-Butyl-3-[(2-chlorophenyl)methyl]triazolo[4,5-d]pyrimidin-7-yl]cyclooctanol]		0.126	> 10
Cn1nnnc1Cn1nnc2c(-c3cc[nH]n3)nc(C(C)(C)C)nc21 [Example 26, 5-tert-butyl-3-[(1-methyltetrazol-5-yl)methyl]-7-(1H-pyrazol-3-yl)triazolo[4,5-d]pyrimidine]	> 10	0.578	
Cn1nccc1-c1nc(C(C)(C)C)nc2c1nnn2Cc1ccccc1S(C)(=O)=O [Example 12, 5-tert-butyl-7-(2-methylpyrazol-3-yl)-3-[(2-methylsulfonylphenyl)methyl]triazolo[4,5-d]pyrimidine]	> 10	0.003	
CC(C)(C)c1nc(-c2ccc(F)cc2)c2nnn(Cc3ccccc3Cl)c2n1 [Example 2, 5-tert-butyl-3-[(2-chlorophenyl)methyl]-7-(4-fluorophenyl)triazolo[4,5-d]pyrimidine]	> 10	0.0285	
CC(C)(C)c1nc(C2(O)CCCC2)c2nnn(Cc3ccccc3Cl)c2n1 [Example 34, 1-[5-tert-Butyl-3-[(2-chlorophenyl)methyl]triazolo[4,5-d]pyrimidin-7-yl]cyclopentanol]	> 10	0.0353	
CC(C)(C)c1nc(C2CCCC2)c2nnn(Cc3ccccc3)c2n1 [Example 45b, 3-benzyl-5-tert-butyl-7-cyclopentyl-triazolo[4,5-d]pyrimidine]	> 10	0.03	
Cc1oncc1-c1nc(C(C)(C)C)nc2c1nnn2Cc1nnnn1C [Example 27, 4-[5-tert-butyl-3-[(1-methyltetrazol-5-yl)methyl]triazolo[4,5-d]pyrimidin-7-yl]-5-methyl-1,2-oxazole]	> 10	0.515	
CC(C)(C)c1nc(C2(O)CCCCCC2)c2nnn(Cc3ccccc3Cl)c2n1 [Example 36, 1-[5-tert-Butyl-3-[(2-chlorophenyl)methyl]triazolo[4,5-d]pyrimidin-7-yl]cycloheptanol]	> 10	0.0173	
Cn1nccc1-c1nc(C(C)(C)C)nc2c1nnn2C[C@H](O)C(F)(F)F [Example 17, (2S)-3-[5-tert-butyl-7-(2-methylpyrazol-3-yl)triazolo[4,5-d]pyrimidin-3-yl]-1,1,1-trifluoropropan-2-ol]	> 10	0.0772	
Cn1cc(-c2nc(C(C)(C)C)nc3c2nnn3Cc2ccccc2Cl)cn1 [Example 8, 5-tert-butyl-3-[(2-chlorophenyl)methyl]-7-(1-methylpyrazol-4-yl)triazolo[4,5-d]pyrimidine]	> 10	0.0174	
CC(C)(C)c1nc(C2(O)CCCCC2)c2nnn(Cc3ccccc3Cl)c2n1 [Example 35, 1-[5-tert-Butyl-3-[(2-chlorophenyl)methyl]triazolo[4,5-d]pyrimidin-7-yl]cyclohexanol]	> 10	0.172	
Cc1oncc1-c1nc(C(C)(C)C)nc2c1nnn2Cc1ccccc1Cl [Example 11, 4-[5-tert-butyl-3-[(2-chlorophenyl)methyl]triazolo[4,5-d]pyrimidin-7-yl]-5-methyl-1,2-oxazole]	> 10	0.0765	
CC(C)(C)c1nc(-c2ccccc2)c2nnn(Cc3ccccc3Cl)c2n1 [Example 10, 5-tert-butyl-3-[(2-chlorophenyl)methyl]-7-phenyltriazolo[4,5-d]pyrimidine]	> 10	0.0802	
Cn1nnnc1Cn1nnc2c(-c3cn[nH]c3)nc(C(C)(C)C)nc21 [Example 25, 5-tert-butyl-3-[(1-methyltetrazol-5-yl)methyl]-7-(1H-pyrazol-4-yl)triazolo[4,5-d]pyrimidine]	> 10	0.032	
Cn1nnnc1Cn1nnc2c(-c3ncc[nH]3)nc(C(C)(C)C)nc21 [Example 28, 5-tert-butyl-7-(1H-imidazol-2-yl)-3-[(1-methyltetrazol-5-yl)methyl]triazolo[4,5-d]pyrimidine]	> 10	0.0125	
Cc1nonc1Cn1nnc2c(-c3ccnn3C)nc(C(C)(C)C)nc21 [Example 14, 3-[[5-tert-butyl-7-(2-methylpyrazol-3-yl)triazolo[4,5-d]pyrimidin-3-yl]methyl]-4-methyl-1,2,5-oxadiazole]	> 10	0.0013	
CC(C)(C)c1nc(-c2ccc(Cl)cc2F)c2nnn(Cc3ccccc3Cl)c2n1 [Example 5, 5-tert-butyl-7-(4-chloro-2-fluorophenyl)-3-[(2-chlorophenyl)methyl]triazolo[4,5-d]pyrimidine]	> 10	0.0882	
Cn1nccc1-c1nc(C(C)(C)C)nc2c1nnn2CC1(C)COC1 [Example 23, 5-tert-butyl-3-[(3-methyloxetan-3-yl)methyl]-7-(2-methylpyrazol-3-yl)triazolo[4,5-d]pyrimidine]	> 10	0.445	
CC(C)(C)c1nc(C2(CF)CC2)c2nnn(Cc3ccccc3Cl)c2n1 [Example 43, 5-tert-Butyl-3-[(2-chlorophenyl)methyl]-7-[1-(fluoromethyl)cyclopropyl]triazolo[4,5-d]pyrimidine]	> 10	0.903	
Cn1nnnc1Cn1nnc2c(-c3cnnn3Cc3ccccc3)nc(C(C)(C)C)nc21 [Example 29, 7-(3-benzyltriazol-4-yl)-5-tert-butyl-3-[(1-methyltetrazol-5-yl)methyl]triazolo[4,5-d]pyrimidine]	> 10	0.0166	
